Data as given in PubChem BioAssay AID248 (DTP/NCI, 2004).
Several values for one entry are separate records, joined by “and”; a condition that tells them apart may be missing. Equal entries are not always repeated. Toxic doses and inconclusive results are not listed. Cut-off read from the data, not from the text of the source: active = T/C of 150% or more; inactive = T/C below 125%.

System: L1210 leukemia ip in BDF1 mice, survival T/C
Assay: NCI In Vivo Anticancer Drug Screen. Data for tumor model L1210 Leukemia (intraperitoneal) in B6D2F1 (BDF1) mice
Conditions: higher = longer survival
Summary of the method: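 Survival endpoint. Drug-treated group vs vehicle group, expressed as T divided by C. Tumor passaged by transplantation.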

[1] = endpoint: mean survival time, dose: 100.0 mg/kg/injection, schedule: Q04DX003 (ip), vehicle: Klucel (hydroxypropylcellulose) (HPC)
[2] = endpoint: mean survival time, dose: 200.0 mg/kg/injection, schedule: Q04DX003 (ip), vehicle: Klucel (hydroxypropylcellulose) (HPC)
[3] = endpoint: mean survival time, dose: 400.0 mg/kg/injection, schedule: Q04DX003 (ip), vehicle: Klucel (hydroxypropylcellulose) (HPC)
[4] = endpoint: mean survival time, dose: 100.0 mg/kg/injection, schedule: Q04DX003 (ip), vehicle: saline with Tween-80
[5] = endpoint: mean survival time, dose: 200.0 mg/kg/injection, schedule: Q04DX003 (ip), vehicle: saline with Tween-80
[6] = endpoint: mean survival time, dose: 400.0 mg/kg/injection, schedule: Q04DX003 (ip), vehicle: saline with Tween-80
[7] = endpoint: mean survival time, dose: 100.0 mg/kg/injection, schedule: Q01DX001 (ip), vehicle: saline
[8] = endpoint: mean survival time, dose: 200.0 mg/kg/injection, schedule: Q01DX001 (ip), vehicle: saline
[9] = endpoint: mean survival time, dose: 400.0 mg/kg/injection, schedule: Q01DX001 (ip), vehicle: saline
[10] = endpoint: mean survival time, dose: 100.0 mg/kg/injection, schedule: Q04DX002 (ip), vehicle: Klucel (hydroxypropylcellulose) (HPC)
[11] = endpoint: mean survival time, dose: 200.0 mg/kg/injection, schedule: Q04DX002 (ip), vehicle: Klucel (hydroxypropylcellulose) (HPC)
[12] = endpoint: mean survival time, dose: 100.0 mg/kg/injection, schedule: Q01DX009 (ip), vehicle: saline
[13] = endpoint: mean survival time, dose: 100.0 mg/kg/injection, schedule: Q04DX003 (ip), vehicle: saline
[14] = endpoint: mean survival time, dose: 200.0 mg/kg/injection, schedule: Q01DX009 (ip), vehicle: saline
[15] = endpoint: mean survival time, dose: 200.0 mg/kg/injection, schedule: Q04DX003 (ip), vehicle: saline
[16] = endpoint: mean survival time, dose: 400.0 mg/kg/injection, schedule: Q04DX003 (ip), vehicle: saline
[17] = endpoint: mean survival time, dose: 100.0 mg/kg/injection, schedule: Q01DX001 (ip), vehicle: Klucel (hydroxypropylcellulose) (HPC)
[18] = endpoint: mean survival time, dose: 200.0 mg/kg/injection, schedule: Q01DX001 (ip), vehicle: Klucel (hydroxypropylcellulose) (HPC)
[19] = endpoint: mean survival time, dose: 400.0 mg/kg/injection, schedule: Q01DX001 (ip), vehicle: Klucel (hydroxypropylcellulose) (HPC)
[20] = endpoint: mean survival time, dose: 100.0 mg/kg/injection, schedule: Q01DX009 (ip), vehicle: Klucel (hydroxypropylcellulose) (HPC)
[21] = endpoint: mean survival time, dose: 200.0 mg/kg/injection, schedule: Q01DX009 (ip), vehicle: Klucel (hydroxypropylcellulose) (HPC)
[22] = endpoint: mean survival time, dose: 400.0 mg/kg/injection, schedule: Q01DX009 (ip), vehicle: Klucel (hydroxypropylcellulose) (HPC)
[23] = endpoint: mean survival time, dose: 100.0 mg/kg/injection, schedule: Q01DX001 (ip), vehicle: other
[24] = endpoint: mean survival time, dose: 200.0 mg/kg/injection, schedule: Q01DX001 (ip), vehicle: other
[25] = endpoint: mean survival time, dose: 400.0 mg/kg/injection, schedule: Q01DX001 (ip), vehicle: other

Measured: T/C

CCC(CC)(C1CCC(O)CC1)C1CCC(O)CC1 (stereo not given)
inactive: endpoint: mean survival time, dose: 75.0 mg/kg/injection, schedule: Q01DX001 (ip), vehicle: carboxymethylcellulose (CMC) 93 % of control | endpoint: mean survival time, dose: 150.0 mg/kg/injection, schedule: Q01DX001 (ip), vehicle: carboxymethylcellulose (CMC) 91 % of control | endpoint: mean survival time, dose: 300.0 mg/kg/injection, schedule: Q01DX001 (ip), vehicle: carboxymethylcellulose (CMC) 89 % of control

O=C(N/N=C/c1ccccc1)c1ccc(Cl)c(Cl)c1
inactive: endpoint: mean survival time, dose: 100.0 mg/kg/injection, schedule: Q04DX003 (ip), vehicle: other 100 % of control | endpoint: mean survival time, dose: 200.0 mg/kg/injection, schedule: Q04DX003 (ip), vehicle: other 92 % of control | endpoint: mean survival time, dose: 400.0 mg/kg/injection, schedule: Q04DX003 (ip), vehicle: other 89 % of control

COc1ccc(NC(=O)/C=C/c2ccc([N+](=O)[O-])cc2)cc1S(=O)(=O)F
inactive: [1] 98 % of control | [2] 107 % of control | [3] 98 % of control

CC(=O)Nc1ccc(C)c2ccccc12
inactive: endpoint: mean survival time, dose: 50.0 mg/kg/injection, schedule: Q04DX003 (ip), vehicle: saline with Tween-80 116 % of control | [4] 100 % of control | [5] 100 % of control | [6] 96 % of control

COC(=O)CC(C)=S.[Ni]
inactive: endpoint: mean survival time, dose: 50.0 mg/kg/injection, schedule: Q01DX001 (ip), vehicle: saline 98 % of control | [7] 98 % of control | [8] 98 % of control | [9] 117 % of control

COc1cc(/C=C\C(=O)c2cccc([N+](=O)[O-])c2)cc(OC)c1OC
inactive: [10] 96 % of control | [11] 89 % of control | endpoint: mean survival time, dose: 400.0 mg/kg/injection, schedule: Q04DX002 (ip), vehicle: Klucel (hydroxypropylcellulose) (HPC) 100 % of control

COc1ccc(C2=NNC(=O)C2(C)Br)cc1 (stereo not given)
inactive: [7] 105 % of control | [8] 91 % of control | [9] 100 % of control

c1ccc2c(c1)CC(=[N+]1CCCCC1)Cc1ccccc1-2
inactive: [12] 92 % of control | [13] 103 % of control | [14] 92 % of control | [15] 89 % of control | [16] 87 % of control

O=[N+]([O-])c1ccc(Cl)cc1/C=N/Nc1c2ccccc2nc2ccccc12
inactive: [7] 92 % of control

O=C(COc1ccccc1)Nc1ccc[n+](Cc2ccc(S(=O)(=O)F)cc2)c1
inactive: [13] 95 % of control and 118 % of control | [15] 101 % of control and 118 % of control | [16] 95 % of control and 114 % of control

O=C(COc1cccc(Cl)c1)Nc1cccc(S(=O)(=O)O)c1 (tested in a mixture with another compound)
inactive: [17] 100 % of control | [18] 99 % of control | [19] 87 % of control

CC(=O)OC(C)(C)/N=N/C(C)(C)OC(C)=O
inactive: [17] 94 % of control | [20] 101 % of control | [1] 108 % of control | [18] 108 % of control | [21] 101 % of control | [2] 101 % of control | [19] 103 % of control | [22] 101 % of control | [3] 103 % of control

CC(C)(C)C1CCC(Cl)C(O)C1 (stereo not given)
inactive: [12] 104 % of control | [14] 100 % of control

O=C(OC1CCCCC1c1ccccc1)c1cc([N+](=O)[O-])cc([N+](=O)[O-])c1 (stereo not given)
inactive: [23] 89 % of control | [24] 89 % of control | [25] 89 % of control

C1=CC2(CC=C1C1=CCC3(C=C1)SCCS3)SCCS2
inactive: endpoint: mean survival time, dose: 50.0 mg/kg/injection, schedule: Q04DX002 (ip), vehicle: Klucel (hydroxypropylcellulose) (HPC) 108 % of control | [10] 101 % of control | [11] 104 % of control

CCCCOC(=O)c1ccc(OC(=O)Nc2ccc(Cl)cc2)cc1
inactive: endpoint: mean survival time, dose: 25.0 mg/kg/injection, schedule: Q01DX009 (ip), vehicle: saline with Tween-80 101 % of control and 110 % of control | endpoint: mean survival time, dose: 50.0 mg/kg/injection, schedule: Q01DX009 (ip), vehicle: saline with Tween-80 101 % of control and 110 % of control | endpoint: mean survival time, dose: 100.0 mg/kg/injection, schedule: Q01DX001 (ip), vehicle: saline with Tween-80 104 % of control | endpoint: mean survival time, dose: 100.0 mg/kg/injection, schedule: Q04DX002 (ip), vehicle: saline with Tween-80 93 % of control and 115 % of control | [4] 94 % of control | endpoint: mean survival time, dose: 200.0 mg/kg/injection, schedule: Q01DX001 (ip), vehicle: saline with Tween-80 95 % of control | endpoint: mean survival time, dose: 200.0 mg/kg/injection, schedule: Q04DX002 (ip), vehicle: saline with Tween-80 95 % of control and 110 % of control | [5] 94 % of control | endpoint: mean survival time, dose: 400.0 mg/kg/injection, schedule: Q01DX001 (ip), vehicle: saline with Tween-80 98 % of control | endpoint: mean survival time, dose: 400.0 mg/kg/injection, schedule: Q04DX002 (ip), vehicle: saline with Tween-80 100 % of control and 106 % of control | [6] 97 % of control

CC(=O)Cc1cc(C)nc(NC#N)n1
inactive: [10] 102 % of control | [11] 98 % of control

CC1(C)C2CCC1C(CO)C2 (stereo not given)
inactive: [20] 94 % of control | [1] 96 % of control | [21] 104 % of control | [2] 107 % of control | [22] 100 % of control | [3] 102 % of control

CC(=O)OCc1c[n+]([O-])c(C)c(OC(C)=O)c1COC(C)=O
inactive: endpoint: mean survival time, dose: 25.0 mg/kg/injection, schedule: Q04DX003 (ip), vehicle: saline 101 % of control | endpoint: mean survival time, dose: 50.0 mg/kg/injection, schedule: Q04DX003 (ip), vehicle: saline 101 % of control

CCN(CC)c1ccc(N=C2C=C(C(=O)Nc3ccccc3)C(=O)c3ccccc32)cc1
inactive: [23] 86 % of control | [24] 89 % of control | [25] 88 % of control

O=C1NC(=O)C2(CCc3ccc(N(CCCl)CCCl)cc32)N1 (stereo not given)
inactive: endpoint: median survival time, dose: 100.0 mg/kg/injection, schedule: Q01DX009 (ip), vehicle: Klucel (hydroxypropylcellulose) (HPC) 105 % of control

CCC(=O)Nc1cccc(OC(C)=O)c1
inactive: endpoint: mean survival time, dose: 100.0 mg/kg/injection, schedule: Q01DX009 (ip), vehicle: saline with Tween-80 91 % of control | endpoint: mean survival time, dose: 200.0 mg/kg/injection, schedule: Q01DX009 (ip), vehicle: saline with Tween-80 90 % of control | endpoint: mean survival time, dose: 400.0 mg/kg/injection, schedule: Q01DX009 (ip), vehicle: saline with Tween-80 107 % of control

CCCC1(CCC)NC(=O)N(CC(N)=O)C1=O
inactive: [4] 100 % of control | [5] 102 % of control | [6] 98 % of control

O=C1CCC[C@@H]2[C@H]3CCCN4CCC[C@@H](CN12)[C@@H]34
inactive: endpoint: mean survival time, dose: 75.0 mg/kg/injection, schedule: Q01DX001 (ip), vehicle: saline 105 % of control | endpoint: mean survival time, dose: 150.0 mg/kg/injection, schedule: Q01DX001 (ip), vehicle: saline 96 % of control
